Measured values taken from PMC7644710, “Structural insights into the mechanism of rhodopsin phosphodiesterase” (Nature Communications, 2020).

Experiments:
[1] = biological target: T1, Rh-PDE-TMD (SrRh-PDE transmembrane domain) (Salpingoeca rosetta, UniProt F2TZN0); assay: X-ray crystallography, […] Å; type: binding; conditions: covalent; Schiff base at Lys296 in TM7; LCP crystals, pH 5.0
T1 construct: gene PTSG_02023; rhodopsin / transmembrane domain (TM0-7), residues 33-316; C-terminal GFP-His8 cut by TEV; HEK293S GnTI-; dimer

Rh-PDE wt (full-length) = biological target: T2, Rh-PDE wt (full-length) (Salpingoeca rosetta, UniProt F2TZN0); assay: HPLC hydrolysis assay, HEK293T homogenate; type: biochemical; conditions: 100 μM cGMP, dark or light (Y52 filter), 3 mM MgCl2, pH 6.5, room temperature
T2 construct: gene PTSG_02023; full-length, RHO 1D4 tag, ~75 kDa; human codon-optimised gene expressed in HEK293T; dimer

[2] = biological target: the molecule itself; assay: SEC-MALS; SEC-MALLS, Superdex 200 Increase 10/300, 4 °C, 20 mM Tris-HCl pH 8.0, 150 mM NaCl, 0.01% LMNG; three-detector method
[3] = biological target: the molecule itself; assay: high-speed atomic force microscopy (HS-AFM); purified full-length Rh-PDE reconstituted in an asolectin lipid bilayer, on APTES-treated mica, buffer without detergent, room temperature, tapping mode

Molecule: CC1=C(/C=C/C(C)=C/C=C/C(C)=C/C=O)C(C)(C)CCC1 [all-trans retinal]
- X-ray crystallography, 2.6 Å [1]: canonical rhodopsin-like topology with covalently linked retinal at Lys296 in TM7

Molecule: Nc1nc2c(ncn2[C@@H]2O[C@@H]3COP(=O)(O)O[C@H]3[C@H]2O)c(=O)[nH]1 [cGMP]
- HPLC hydrolysis assay, HEK293T homogenate (Rh-PDE wt (full-length)): The wild-type Rh-PDE showed three and twofold light-induced productions of cAMP and cGMP, respectively

B1: Rhodopsin phosphodiesterase transmembrane domain (Rh-PDE–TMD, residues 33–316) (domain or fragment, Salpingoeca rosetta, UniProt F2TZN0 33-316, looked up)
chain: GRGKRRAKTRNIAIASTKEVQWQGIFMIIVWLCVMGSLIFFANPEASRRVFAKFSHLQSFYGATSVAFAFATGLDILAYVNAVSDEKRVLSGILAYVDGVACISYLSMATLNLYFLVDSTQGNPVWLMRYAEWIITCPTLLYWCGLASRADRSSVSDIATADALLLAGGALSSILPSWPAFFVFAGSFATYIYVMLHMWGMFGKAMQPDFQPPPPLPRHALHLLRCEIVMSWSIFPLVEFLRRQGYIDFQVGEAMNCVADYAAKVGLAMIMVNCNLEQINALRV
modifications: covalently linked retinal at Lys296
notes: Rhodopsin phosphodiesterase (Rh-PDE) of Salpingoeca rosetta, transmembrane domain, residues 33-316; gene synthesised with human codon optimisation; TEV site between the protein and the GFP-His8 tag; also called SrRh-PDE–TMD; source: HEK293S GnTI- cells (pEG BacMam), purified (TALON, TEV cleavage, SEC) in LMNG/CHS; not shown: GFP-His8, C-terminal, cleaved
- stoichiometry N [2]: 2

B2: Full-length rhodopsin phosphodiesterase from Salpingoeca rosetta (enzyme, UniProt F2TZN0 1-704, looked up)
chain: MGRKNAANSSMLQEASMNNYSMTSAASGASSSGRGKRRAKTRNIAIASTKEVQWQGIFMIIVWLCVMGSLIFFANPEASRRVFAKFSHLQSFYGATSVAFAFATGLDILAYVNAVSDEKRVLSGILAYVDGVACISYLSMATLNLYFLVDSTQGNPVWLMRYAEWIITCPTLLYWCGLASRADRSSVSDIATADALLLAGGALSSILPSWPAFFVFAGSFATYIYVMLHMWGMFGKAMQPDFQPPPPLPRHALHLLRCEIVMSWSIFPLVEFLRRQGYIDFQVGEAMNCVADYAAKVGLAMIMVNCNLEQINALRVQQMHSALTGMLKVMRKTNLSSSRMAQLDGVDDDVKSWIMNEFSGSTDGKGGDDAKAQQRARGRKGHSAAMDAEKLAASSLFTWDFDALDKSDEDLTAVCVRVFQELHVIEQFNIDEKKLRKWLQKVRTQYNKNPFHNWRHAVMVLHTTYLLLTSVATEFITEVELLAMLIAALSHDLDHNGLTNAFHINSRSELALVYNDQSVLENHHSHLAFEILLEKGCNVVENLDEDEFKRLRAVIINCILNTDMATHHTKLSKMEEVNRLGGFINLAENNDQRLFVLAVLLHTADLHNPIKPFESNKRWSARLQKEFNNQVELEAKMNLPSLPFMRGNDEESLAKGEIGFINFVVKPWHQQLSQAFPKLDFLLDTIDANLAEWKAIAESYRQMH
notes: Rhodopsin phosphodiesterase (Rh-PDE) of Salpingoeca rosetta, full length; also called full-length Rh-PDE; Rh-PDE (full); source: purified as the TMD constructs (HEK293S GnTI- cells) but in DDM/CHS; reconstituted in an asolectin lipid bilayer; not shown: GFP-His8, C-terminal, cleaved
- stoichiometry N [3]: 2
